Test system: MPNST multicellular tumor spheroids, viability % test/control
Test: Anticancer human tumor MPNST cell line growth inhibition;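 further: spheroids exposed to agents for seven days after three days of growth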;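 on viability, T/C: luminescence signal used as surrogate for viable cell amount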
Settings: for IC50: curve of first compound; for viability, T/C: stronger effect = lower value
Excerpt: Multicellular complex tumor spheroid response to DNA repair inhibitors in combination with DNA-damaging drugs
This study explores the anticancer activities of DNA-damaging drugs and inhibitors of DNA damage repair, both as single agents and in combinations. Complex tumor spheroids comprised of malignant cells, endothelial cells and mesenchymal stem cells served as an in vitro model for human solid tumors. This model system incorporates physiologically relevant features and patient-derived or established malignant cell lines with clinically relevant genetic alterations from many tumor types. Twenty-six patient-derived or established malignant cell lines were evaluated representing sarcoma, melanoma, small cell lung cancer (SCLC), non-small cell lung cancer (NSCLC), as well as bladder, ovarian and pancreatic cancers. The concentration ranges selected for each drug and investigational agent were based upon clinically achievable concentrations if the clinical Cmax of the agent was known.
Compounds. The drugs and compounds olaparib (NSC753686), talazoparib (NSC767125), berzosertib (NSC777718), elimusertib (NSC800525), nedisertib (NSC802822), VX-984 (NSC792969), AZD-1390 (NSC803789), temozolomide (NSC362856), topotecan (NSC609699), trabectedin (NSC813783), staurosporine (NSC755774), and gemcitabine (NSC613327) were obtained from the National Cancer Institute (NCI) Developmental Therapeutics Program Chemical Repository. The FDA-approved anticancer drug set is available from the Developmental Therapeutics Program at https://dtp.cancer.gov/organization/dscb/obtaining/available_plates.htm. […] The stock solutions were prepared in dimethyl sulfoxide (DMSO, Sigma-Aldrich, St. Louis, MO, cat. D2650) at 400-fold the tested concentration and stored at -70 degrees C. Prior to their use, the stock solutions were diluted in fresh medium and the final DMSO concentration in the assay was 0.25% (v/v). All drugs and investigational agents were tested over a range starting from a high concentration at or near the clinical Cmax and decreasing in half-log increments. If the clinical Cmax for an agent had not been determined, the highest concentration tested was 10 microM.
Cell Lines. The patient-derived cancer cell (PDC) lines: 156681-154-R-J1-PDC, 283228-195-R-J1-PDC, 287954-098-R-J1-PDC, 292921-168-R-J2-PDC, 349418-098-R-PDC, 425362-245-T-J1-PDC, 556581-035-R-J1-PDC, and BL0293-F563-PDC were received from the NCI Patient-Derived Models Repository (PDMR, https://pdmr.cancer.gov). The established cell lines HS-SY-2 (RRID:CVCL_8719), MPNST, and SYO-1 (RRID:CVCL_7146) were obtained from the Sloan Kettering Institute. The alveolar soft parts sarcoma cell line ASPS-1 (RRID:CVCL_S738) was established at the NCI and grown from internal seed stocks. The following established cell lines were purchased from the American Type Culture Collection (ATCC, Manassas, VA): G-401 (ATCC, cat. CRL-1441, RRID:CVCL_0270), SW982 (ATCC, cat. HTB-93, RRID:CVCL_1734), VA-ES-BJ (ATCC, cat. CRL-2138, RRID:CVCL_1785), NCI-H719 (ATCC, cat. CRL-5837, RRID:CVCL_1582), NCI-H196 (ATCC, cat. CRL-5823, RRID:CVCL_1509), NCI-H841 (ATCC, cat. CRL-5845, RRID:CVCL_1595), NCI-H1618 (ATCC, cat. CRL-5879, RRID:CVCL_1480), NCI-H1876 (ATCC, cat. CRL-5902, RRID:CVCL_1503), DMS 114 (ATCC, cat. CRL-2066; RRID:CVCL_1174), NCI-H211 (ATCC, cat. CRL-5824; RRID:CVCL_1529), and SW 1271 (ATCC, cat. CRL-2177, RRID:CVCL_1716). The small cell lung cancer cell line COR-L88 was purchased from Sigma-Aldrich (cat. 92031917-1VL, RRID:CVCL_1141). The non-small cell lung cancer cell lines NCI-H226 (RRID:CVCL_1544) and NCI-H322M (RRID:CVCL_1557) were established at the NCI and grown from internal seed stocks. Pooled donor human umbilical vein endothelial cells (HUVEC, Lonza, cat. CC-2519) and human mesenchymal stem cells (hMSC, Lonza, cat. PT-2501) were purchased from Lonza (Walkersville, MD).
Cell Culture. All cells were maintained in an incubator at 37 degrees C and 5% CO2 with 95% humidity. […]

[1] = second compound 0.003 µM, first compound 0.00949 µM
[2] = second compound 0.003 µM, first compound 0.03 µM
[3] = second compound 0.003 µM, first compound 0.0949 µM
[4] = second compound 0.003 µM, first compound 0.3 µM
[5] = second compound 0.003 µM, first compound 0.949 µM
[6] = second compound 0.003 µM, first compound 3 µM
[7] = second compound 0.00949 µM, first compound 0.00949 µM
[8] = second compound 0.00949 µM, first compound 0.03 µM
[9] = second compound 0.00949 µM, first compound 0.0949 µM
[10] = second compound 0.00949 µM, first compound 0.3 µM
[11] = second compound 0.00949 µM, first compound 0.949 µM
[12] = second compound 0.00949 µM, first compound 3 µM
[13] = second compound 0.03 µM, first compound 0.00949 µM
[14] = second compound 0.03 µM, first compound 0.03 µM
[15] = second compound 0.03 µM, first compound 0.0949 µM
[16] = second compound 0.03 µM, first compound 0.3 µM
[17] = second compound 0.03 µM, first compound 0.949 µM
[18] = second compound 0.03 µM, first compound 3 µM
[19] = second compound 0.0949 µM, first compound 0.00949 µM
[20] = second compound 0.0949 µM, first compound 0.03 µM
[21] = second compound 0.0949 µM, first compound 0.0949 µM
[22] = second compound 0.0949 µM, first compound 0.3 µM
[23] = second compound 0.0949 µM, first compound 0.949 µM
[24] = second compound 0.0949 µM, first compound 3 µM
[25] = second compound 0.3 µM, first compound 0.00949 µM
[26] = second compound 0.3 µM, first compound 0.03 µM
[27] = second compound 0.3 µM, first compound 0.0949 µM
[28] = second compound 0.3 µM, first compound 0.3 µM
[29] = second compound 0.3 µM, first compound 0.949 µM
[30] = second compound 0.3 µM, first compound 3 µM

SMILES | IC50 (second compound 0.003 µM) | IC50 (second compound 0.00949 µM) | IC50 (second compound 0.03 µM) | IC50 (second compound 0.0949 µM) | IC50 (second compound 0.3 µM) | viability, T/C [1] | viability, T/C [2] | viability, T/C [3] | viability, T/C [4] | viability, T/C [5] | viability, T/C [6] | viability, T/C [7] | viability, T/C [8] | viability, T/C [9] | viability, T/C [10] | viability, T/C [11] | viability, T/C [12] | viability, T/C [13] | viability, T/C [14] | viability, T/C [15] | further results
CNCc1ccc(-c2cc(-c3nc(-c4ccc(S(=O)(=O)C(C)C)cc4)cnc3N)on2)cc1 + CC[C@@]1(O)C(=O)OCc2c1cc1n(c2=O)Cc2cc3c(CN(C)C)c(O)ccc3nc2-1 | > 3 µM | > 3 µM | > 3 µM | > 3 µM | < 0.00949 µM | 104% | 99.3% | 71.8% | 61.4% | 64.3% | 61.7% | 75.6% | 74.3% | 59.7% | 58% | 60.3% | 66.6% | 61.9% | 55.1% | 53.8% | viability, T/C [16]: 57.1%; viability, T/C [17]: 63.7%; viability, T/C [18]: 64.9%; viability, T/C [19]: 57.7%; viability, T/C [20]: 54.8%; viability, T/C [21]: 56.8%; viability, T/C [22]: 64.7%; viability, T/C [23]: 58.1%; viability, T/C [24]: 70.7%; viability, T/C [25]: 46.1%; viability, T/C [26]: 45%; viability, T/C [27]: 48.8%; viability, T/C [28]: 50%; viability, T/C [29]: 55.5%; viability, T/C [30]: 52.7%
Cc1sc2c(c1C)C(c1ccc(Cl)cc1)=NC(CC(=O)Nc1ccc(O)cc1)c1nnc(C)n1-2 (stereo not given) + CC[C@@]1(O)C(=O)OCc2c1cc1n(c2=O)Cc2cc3c(CN(C)C)c(O)ccc3nc2-1 | 1.86 µM | > 3 µM | 2.5 µM | 1.21 µM | 0.0106 µM | 113% | 98.3% | 85.1% | 66.9% | 51.9% | 48.4% | 82% | 85.7% | 81.8% | 62.4% | 54.5% | 50.5% | 66.8% | 64.1% | 62% | viability, T/C [16]: 58.1%; viability, T/C [17]: 51.9%; viability, T/C [18]: 49.4%; viability, T/C [19]: 58.4%; viability, T/C [20]: 60.1%; viability, T/C [21]: 60.4%; viability, T/C [22]: 56.3%; viability, T/C [23]: 48.8%; viability, T/C [24]: 45.4%; viability, T/C [25]: 50.6%; viability, T/C [26]: 47.8%; viability, T/C [27]: 47.2%; viability, T/C [28]: 44.9%; viability, T/C [29]: 37.9%; viability, T/C [30]: 33.1%
Cn1ncnc1[C@H]1c2n[nH]c(=O)c3cc(F)cc(c23)N[C@@H]1c1ccc(F)cc1 + CC[C@@]1(O)C(=O)OCc2c1cc1n(c2=O)Cc2cc3c(CN(C)C)c(O)ccc3nc2-1 | > 3 µM | > 3 µM | > 3 µM | > 3 µM | < 0.00949 µM | 90.6% | 77.2% | 72.3% | 68.7% | 62.2% | 60.1% | 65% | 65.6% | 60.5% | 63.9% | 59.4% | 59.9% | 56.7% | 59% | 61.1% | viability, T/C [16]: 59.7%; viability, T/C [17]: 64%; viability, T/C [18]: 61.1%; viability, T/C [19]: 59.7%; viability, T/C [20]: 55.8%; viability, T/C [21]: 58.8%; viability, T/C [22]: 61.6%; viability, T/C [23]: 59.1%; viability, T/C [24]: 55.6%; viability, T/C [25]: 49.5%; viability, T/C [26]: 48.5%; viability, T/C [27]: 49.2%; viability, T/C [28]: 52.7%; viability, T/C [29]: 53%; viability, T/C [30]: 46.3%
